Data on one compound can be found in PMC9292024 (The New Phytologist, 2021).

In assay [1] the target is T1, SbMAX1d (Sorghum bicolor, UniProt A0A809QVY0).
T1 sequence (A0A809QVY0 1-539): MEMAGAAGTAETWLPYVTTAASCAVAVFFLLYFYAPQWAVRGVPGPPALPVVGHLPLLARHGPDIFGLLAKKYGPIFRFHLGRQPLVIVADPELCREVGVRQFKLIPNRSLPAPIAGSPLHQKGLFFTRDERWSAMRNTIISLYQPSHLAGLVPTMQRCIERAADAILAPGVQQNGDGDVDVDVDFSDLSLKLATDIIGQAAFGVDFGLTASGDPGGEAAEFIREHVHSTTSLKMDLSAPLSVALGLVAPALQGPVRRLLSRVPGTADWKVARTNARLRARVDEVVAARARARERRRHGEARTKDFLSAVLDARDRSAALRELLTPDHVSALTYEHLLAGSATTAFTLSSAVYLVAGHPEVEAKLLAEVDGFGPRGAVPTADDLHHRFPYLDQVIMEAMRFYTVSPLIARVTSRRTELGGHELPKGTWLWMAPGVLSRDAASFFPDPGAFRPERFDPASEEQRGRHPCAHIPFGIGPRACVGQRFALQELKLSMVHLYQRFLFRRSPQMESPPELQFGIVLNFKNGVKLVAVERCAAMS
In words: yeast microsome conversion, LC-MS/MS. In kind it is biochemical. The note with it: 33 μM rac-CL, 500 μM NADPH, 28°C, 1 h.

In assay [2] the target is T2, SbMAX1c (Sorghum bicolor, UniProt A0A809Q895).
T2 sequence (A0A809Q895 1-545): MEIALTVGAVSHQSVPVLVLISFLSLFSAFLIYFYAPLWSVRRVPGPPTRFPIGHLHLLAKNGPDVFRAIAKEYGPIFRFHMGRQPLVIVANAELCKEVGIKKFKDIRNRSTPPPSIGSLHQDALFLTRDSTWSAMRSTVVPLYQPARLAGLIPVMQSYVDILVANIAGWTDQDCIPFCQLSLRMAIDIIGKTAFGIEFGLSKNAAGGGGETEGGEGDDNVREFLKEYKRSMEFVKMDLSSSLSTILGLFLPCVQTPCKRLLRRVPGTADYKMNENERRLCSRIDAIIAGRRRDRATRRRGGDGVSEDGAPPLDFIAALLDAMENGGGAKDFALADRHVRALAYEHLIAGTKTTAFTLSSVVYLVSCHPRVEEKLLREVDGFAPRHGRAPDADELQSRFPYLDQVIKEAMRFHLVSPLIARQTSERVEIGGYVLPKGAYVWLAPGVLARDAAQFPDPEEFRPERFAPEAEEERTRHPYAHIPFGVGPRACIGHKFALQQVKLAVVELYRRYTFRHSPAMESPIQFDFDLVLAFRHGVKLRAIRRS
In words: yeast microsome conversion, LC-MS/MS. As to conditions: 33 μM rac-CL, 500 μM NADPH, 28°C, 1 h. In kind it is biochemical.

On to `CC1=CC(O/C=C(C)\C=C\C2=C(C)CCCC2(C)C)OC1=O` (racemic) [rac‐CL], for which the “yeast microsome conversion, LC-MS/MS” value in assay [1] was “expressing SbMAX1b, SbMAX1c, or SbMAX1d after incubation with rac‐CL”; in assay [2], “expressing SbMAX1b, SbMAX1c, or SbMAX1d after incubation with rac‐CL”.
